#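 Values below derive from 48-hour exposures of cells grown in 96-well plates, with endpoints linearly interpolated between the two concentrations bracketing the appropriate inhibition level. Definition used: TGI = concentration required for complete inhibition of growth.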
# Columns and labels:
# Experiment in all cases: growth of human tumour cells (NCI), 48 h
# HOP-92 NSCLC = tested on: HOP-92 NSCLC
# SF-295 CNS = tested on: SF-295 CNS
# OVCAR-3 ovarian = tested on: OVCAR-3 ovarian
# OVCAR-4 ovarian = tested on: OVCAR-4 ovarian
# CAKI-1 renal = tested on: CAKI-1 renal
# RPMI-8226 leukemia = tested on: RPMI-8226 leukemia
# MALME-3M melanoma = tested on: MALME-3M melanoma
# M14 melanoma = tested on: M14 melanoma
# OVCAR-8 ovarian = tested on: OVCAR-8 ovarian
# HS 578T breast = tested on: HS 578T breast
# SK-MEL-2 melanoma = tested on: SK-MEL-2 melanoma
# HCT-116 colon = tested on: HCT-116 colon
# HT29 colon = tested on: HT29 colon
# UACC-257 melanoma = tested on: UACC-257 melanoma
# KM12 colon = tested on: KM12 colon
# RXF 393 renal = tested on: RXF 393 renal
# A498 renal = tested on: A498 renal
# UACC-62 melanoma = tested on: UACC-62 melanoma
# K-562 leukemia = tested on: K-562 leukemia
# SF-539 CNS = tested on: SF-539 CNS
# HOP-62 NSCLC = tested on: HOP-62 NSCLC
# SR leukemia = tested on: SR leukemia
# PC-3 prostate = tested on: PC-3 prostate
# HCT-15 colon = tested on: HCT-15 colon
# SK-OV-3 ovarian = tested on: SK-OV-3 ovarian
# MCF7 breast = tested on: MCF7 breast
# EKVX NSCLC = tested on: EKVX NSCLC
# NCI-H23 lung = tested on: NCI-H23 lung
# SNB-19 CNS = tested on: SNB-19 CNS
# OVCAR-5 ovarian = tested on: OVCAR-5 ovarian
# COLO 205 colon = tested on: COLO 205 colon
# HL-60(TB) leukemia = tested on: HL-60(TB) leukemia
# NCI-H460 lung = tested on: NCI-H460 lung
# 786-0 renal = tested on: 786-0 renal
# BT-549 breast = tested on: BT-549 breast
# IGROV1 ovarian = tested on: IGROV1 ovarian
# CCRF-CEM leukemia = tested on: CCRF-CEM leukemia
# SN12C renal = tested on: SN12C renal
# TK-10 renal = tested on: TK-10 renal
# SF-268 CNS = tested on: SF-268 CNS
# MDA-MB-435 = tested on: MDA-MB-435
# LOX IMVI melanoma = tested on: LOX IMVI melanoma
# DU-145 prostate = tested on: DU-145 prostate
# SK-MEL-28 melanoma = tested on: SK-MEL-28 melanoma
# NCI-H226 lung = tested on: NCI-H226 lung
# U251 CNS = tested on: U251 CNS
# SNB-75 CNS = tested on: SNB-75 CNS
# MOLT-4 leukemia = tested on: MOLT-4 leukemia
# SK-MEL-5 melanoma = tested on: SK-MEL-5 melanoma
# ACHN renal = tested on: ACHN renal
# A549 NSCLC = tested on: A549 NSCLC
# UO-31 renal = tested on: UO-31 renal
# NCI-H522 lung = tested on: NCI-H522 lung
# MDA-N = tested on: MDA-N
# SW-620 colon = tested on: SW-620 colon
# NCI/ADR-RES ovarian = tested on: NCI/ADR-RES ovarian
# T-47D breast = tested on: T-47D breast
# MDA-MB-231 breast = tested on: MDA-MB-231 breast
# HCC-2998 colon = tested on: HCC-2998 colon
smiles,measurement,setting,value
Nc1nc(Cl)cc(NCC2(CO)CCCCC2)n1,TGI,HOP-92 NSCLC,> 100 µM
same,TGI,SF-295 CNS,> 100 µM
same,TGI,OVCAR-3 ovarian,> 100 µM
same,TGI,OVCAR-4 ovarian,> 100 µM
same,TGI,CAKI-1 renal,> 100 µM
same,TGI,RPMI-8226 leukemia,> 100 µM
same,TGI,MALME-3M melanoma,> 100 µM
same,TGI,M14 melanoma,> 100 µM
same,TGI,OVCAR-8 ovarian,> 100 µM
same,TGI,HS 578T breast,> 100 µM
same,TGI,SK-MEL-2 melanoma,> 100 µM
same,TGI,HCT-116 colon,> 100 µM
same,TGI,HT29 colon,> 100 µM
same,TGI,UACC-257 melanoma,> 100 µM
same,TGI,KM12 colon,> 100 µM
same,TGI,RXF 393 renal,> 100 µM
same,TGI,A498 renal,> 100 µM
same,TGI,UACC-62 melanoma,> 100 µM
same,TGI,K-562 leukemia,> 100 µM
same,TGI,SF-539 CNS,> 100 µM
same,TGI,HOP-62 NSCLC,> 100 µM
same,TGI,SR leukemia,> 100 µM
same,TGI,PC-3 prostate,> 100 µM
same,TGI,HCT-15 colon,> 100 µM
same,TGI,SK-OV-3 ovarian,> 100 µM
same,TGI,MCF7 breast,> 100 µM
same,TGI,EKVX NSCLC,> 100 µM
same,TGI,NCI-H23 lung,> 100 µM
same,TGI,SNB-19 CNS,> 100 µM
same,TGI,OVCAR-5 ovarian,> 100 µM
same,TGI,COLO 205 colon,> 100 µM
same,TGI,HL-60(TB) leukemia,> 100 µM
same,TGI,NCI-H460 lung,> 100 µM
same,TGI,786-0 renal,> 100 µM
same,TGI,BT-549 breast,> 100 µM
same,TGI,IGROV1 ovarian,> 100 µM
same,TGI,CCRF-CEM leukemia,> 100 µM
same,TGI,SN12C renal,> 100 µM
same,TGI,TK-10 renal,> 100 µM
same,TGI,SF-268 CNS,> 100 µM
same,TGI,MDA-MB-435,> 100 µM
same,TGI,LOX IMVI melanoma,> 100 µM
same,TGI,DU-145 prostate,> 100 µM
same,TGI,SK-MEL-28 melanoma,> 100 µM
same,TGI,NCI-H226 lung,> 100 µM
same,TGI,U251 CNS,> 100 µM
same,TGI,SNB-75 CNS,> 100 µM
same,TGI,MOLT-4 leukemia,> 100 µM
same,TGI,SK-MEL-5 melanoma,> 100 µM
same,TGI,ACHN renal,> 100 µM
same,TGI,A549 NSCLC,> 100 µM
same,TGI,UO-31 renal,> 100 µM
same,TGI,NCI-H522 lung,> 100 µM
same,TGI,MDA-N,> 100 µM
same,TGI,SW-620 colon,> 100 µM
same,TGI,NCI/ADR-RES ovarian,> 100 µM
same,TGI,T-47D breast,> 100 µM
same,TGI,MDA-MB-231 breast,> 100 µM
O=[N+]([O-])c1cc(Br)cc2cc(Cl)cnc12,TGI,HOP-92 NSCLC,6.36 µM
same,TGI,SF-295 CNS,> 100 µM
same,TGI,OVCAR-3 ovarian,> 100 µM
same,TGI,OVCAR-4 ovarian,> 100 µM
same,TGI,CAKI-1 renal,> 100 µM
same,TGI,RPMI-8226 leukemia,> 100 µM
same,TGI,MALME-3M melanoma,> 100 µM
same,TGI,M14 melanoma,> 100 µM
same,TGI,OVCAR-8 ovarian,> 100 µM
same,TGI,HS 578T breast,> 100 µM
same,TGI,HCT-116 colon,> 100 µM
same,TGI,HT29 colon,> 100 µM
same,TGI,UACC-257 melanoma,> 100 µM
same,TGI,KM12 colon,> 100 µM
same,TGI,RXF 393 renal,> 100 µM
same,TGI,A498 renal,> 100 µM
same,TGI,UACC-62 melanoma,> 100 µM
same,TGI,K-562 leukemia,> 100 µM
same,TGI,SF-539 CNS,> 100 µM
same,TGI,HOP-62 NSCLC,> 100 µM
same,TGI,SR leukemia,> 100 µM
same,TGI,PC-3 prostate,> 100 µM
same,TGI,HCT-15 colon,> 100 µM
same,TGI,SK-OV-3 ovarian,> 100 µM
same,TGI,MCF7 breast,> 100 µM
same,TGI,EKVX NSCLC,> 100 µM
same,TGI,NCI-H23 lung,> 100 µM
same,TGI,SNB-19 CNS,> 100 µM
same,TGI,OVCAR-5 ovarian,> 100 µM
same,TGI,COLO 205 colon,> 100 µM
same,TGI,HL-60(TB) leukemia,> 100 µM
same,TGI,NCI-H460 lung,> 100 µM
same,TGI,786-0 renal,> 100 µM
same,TGI,BT-549 breast,> 100 µM
same,TGI,IGROV1 ovarian,24.2 µM
same,TGI,CCRF-CEM leukemia,> 100 µM
same,TGI,SN12C renal,> 100 µM
same,TGI,TK-10 renal,> 100 µM
same,TGI,SF-268 CNS,> 100 µM
same,TGI,MDA-MB-435,> 100 µM
same,TGI,LOX IMVI melanoma,> 100 µM
same,TGI,DU-145 prostate,> 100 µM
same,TGI,SK-MEL-28 melanoma,> 100 µM
same,TGI,NCI-H226 lung,> 100 µM
same,TGI,U251 CNS,> 100 µM
same,TGI,SNB-75 CNS,92 µM
same,TGI,MOLT-4 leukemia,> 100 µM
same,TGI,SK-MEL-5 melanoma,> 100 µM
same,TGI,ACHN renal,> 100 µM
same,TGI,A549 NSCLC,> 100 µM
same,TGI,UO-31 renal,> 100 µM
same,TGI,NCI-H522 lung,> 100 µM
same,TGI,MDA-N,> 100 µM
same,TGI,SW-620 colon,32.8 µM
same,TGI,NCI/ADR-RES ovarian,> 100 µM
same,TGI,HCC-2998 colon,> 100 µM
same,TGI,T-47D breast,> 100 µM
same,TGI,MDA-MB-231 breast,> 100 µM
CC(=O)C(N1CCCCC1)C(O)(C(F)(F)F)C(F)(F)F (stereo unspecified),TGI,HOP-92 NSCLC,> 100 µM
same,TGI,SF-295 CNS,> 100 µM
same,TGI,OVCAR-3 ovarian,> 100 µM
same,TGI,OVCAR-4 ovarian,> 100 µM
same,TGI,CAKI-1 renal,> 100 µM
same,TGI,RPMI-8226 leukemia,> 100 µM
same,TGI,MALME-3M melanoma,> 100 µM
same,TGI,M14 melanoma,> 100 µM
same,TGI,OVCAR-8 ovarian,> 100 µM
same,TGI,HS 578T breast,> 100 µM
same,TGI,HCT-116 colon,> 100 µM
same,TGI,HT29 colon,> 100 µM
same,TGI,UACC-257 melanoma,> 100 µM
same,TGI,KM12 colon,> 100 µM
same,TGI,RXF 393 renal,> 100 µM
same,TGI,A498 renal,> 100 µM
same,TGI,UACC-62 melanoma,> 100 µM
same,TGI,K-562 leukemia,> 100 µM
same,TGI,SF-539 CNS,> 100 µM
same,TGI,SR leukemia,> 100 µM
same,TGI,PC-3 prostate,> 100 µM
same,TGI,HCT-15 colon,> 100 µM
same,TGI,SK-OV-3 ovarian,> 100 µM
same,TGI,MCF7 breast,> 100 µM
same,TGI,EKVX NSCLC,> 100 µM
same,TGI,NCI-H23 lung,> 100 µM
same,TGI,SNB-19 CNS,> 100 µM
same,TGI,OVCAR-5 ovarian,> 100 µM
same,TGI,COLO 205 colon,> 100 µM
same,TGI,HL-60(TB) leukemia,> 100 µM
same,TGI,NCI-H460 lung,> 100 µM
same,TGI,786-0 renal,> 100 µM
same,TGI,BT-549 breast,> 100 µM
same,TGI,IGROV1 ovarian,> 100 µM
same,TGI,CCRF-CEM leukemia,> 100 µM
same,TGI,TK-10 renal,> 100 µM
same,TGI,MDA-MB-435,> 100 µM
same,TGI,LOX IMVI melanoma,> 100 µM
same,TGI,DU-145 prostate,> 100 µM
same,TGI,SK-MEL-28 melanoma,> 100 µM
same,TGI,NCI-H226 lung,> 100 µM
same,TGI,U251 CNS,> 100 µM
same,TGI,SNB-75 CNS,> 100 µM
same,TGI,MOLT-4 leukemia,> 100 µM
same,TGI,SK-MEL-5 melanoma,> 100 µM
same,TGI,ACHN renal,> 100 µM
same,TGI,A549 NSCLC,> 100 µM
same,TGI,UO-31 renal,> 100 µM
same,TGI,NCI-H522 lung,> 100 µM
same,TGI,MDA-N,> 100 µM
same,TGI,SW-620 colon,> 100 µM
same,TGI,NCI/ADR-RES ovarian,> 100 µM
same,TGI,HCC-2998 colon,> 100 µM
same,TGI,T-47D breast,> 100 µM
same,TGI,MDA-MB-231 breast,> 100 µM

# Reference: PubChem BioAssay (NCI)
